Measured values from ChEMBL document CHEMBL4706574, “Preparation, characterization, antioxidant evaluation of new curcumin derivatives and effects of forming HSA-bound nanoparticles on the stability and activity” (Eur J Med Chem, 2020).
Calls of active or inactive are those of the source. The calls are words filed in the database; no cut-off is given here.

Columns and labels:
[1] = Cytoprotective activity against H2O2-induced cell death in […] assessed as cell viability at 30 uM incubated for 0.5 hrs followed by H2O2 stimulation and measured after 2 hrs by MTT assay relative to control; format: functional; settings: Rattus norvegicus, time 2.5 hrs, read-out: Activity
PC-12 [2] = experiment: Cytoprotective activity against H2O2-induced cell death in […] assessed as cell viability at 30 to 100 uM incubated for 0.5 hrs followed by H2O2 stimulation and measured after 2 hrs by MTT assay; format: functional, cell-based; settings: dose 30-100 µM, time 2.5 hrs
PC-12 [3] = experiment: Cytoprotective activity against H2O2-induced cell death in […] assessed as cell viability at 0.1 uM incubated for 0.5 hrs followed by H2O2 stimulation and measured after 2 hrs by MTT assay; format: functional, cell-based; settings: time 2.5 hrs
PC-12 [4] = experiment: Cytoprotective activity against H2O2-induced cell death in […] assessed as cell viability at 100 uM incubated for 0.5 hrs followed by H2O2 stimulation and measured after 2 hrs by MTT assay; format: functional, cell-based; settings: Rattus norvegicus, time 2.5 hrs
PC-12 [5] = experiment: Cytoprotective activity against H2O2-induced cell death in […] assessed as cell viability at 10 uM incubated for 0.5 hrs followed by H2O2 stimulation and measured after 2 hrs by MTT assay; format: functional, cell-based; settings: time 2.5 hrs
[6] = Stability of compound in PBS buffer at pH 7.4 incubated for 48 hrs by UV-vis spectrophotometry; format: physicochemical; settings: pH 7.4, 48 h
K562 = experiment: Antiproliferative activity against human K562 cells assessed as cell viability at 10 uM incubated for 48 hrs by MTT assay (reference value: 100 %); format: functional; settings: read-out: Activity
HepG2 = experiment: Antiproliferative activity against human HepG2 cells assessed as cell viability at 10 uM incubated for 48 hrs by MTT assay (reference value: 100 %); format: functional; settings: read-out: Activity
HCT-116 = experiment: Antiproliferative activity against human HCT-116 cells assessed as cell viability at 10 uM incubated for 48 hrs by MTT assay (reference value: 100 %); format: functional; settings: read-out: Activity

SMILES	viability at 30 µM [1] [%]	Activity (PC-12 [2]; Rattus norvegicus)	Activity (PC-12 [4])	also measured
C=CCc1cc(/C=C/C(=O)/C=C(O)/C=C/c2cc(CC=C)c(O)c(OC)c2)cc(OC)c1O	100	Active		Activity (PC-12 [3]): Active
COc1cc(/C=C/c2cc(/C=C/c3cc(CC=C(C)C)c(O)c(OC)c3)n[nH]2)ccc1O		Active		
COc1cc(/C=C/c2cc(/C=C/c3cc(CC=C(C)C)c(O)c(OC)c3)[nH]n2)cc(CC=C(C)C)c1O	100	Active	inactive	
C=CCc1cc(/C=C/c2cc(/C=C/c3cc(CC=C)c(O)c(OC)c3)[nH]n2)cc(OC)c1O		Active		
O=C(O)c1cc(O)c(O)c(O)c1				Activity (PC-12 [2]): Active; Activity (PC-12 [5]): inactive
C=CCc1cc(/C=C/C(=O)/C=C(O)/C=C/c2ccc(O)c(OC)c2)cc(OC)c1O	100	Active	inactive	
COc1cc(/C=C/C(=O)CC(=O)/C=C/c2ccc(O)c(OC)c2)ccc1O [CURCUMIN]		Active		Stabilty [6]: Unstable; viability at 10 µM (K562): 65.4%; viability at 10 µM (HepG2): 58.8%; viability at 10 µM (HCT-116): 10.3%
COc1cc(/C=C/C(=O)/C=C(O)/C=C/c2cc(CC=C(C)C)c(O)c(OC)c2)cc(CC=C(C)C)c1O	100	Active	Active	Stabilty [6]: Unstable; viability at 10 µM (K562): 64.3%; viability at 10 µM (HepG2): 64.3%; viability at 10 µM (HCT-116): 61.1%; Activity (PC-12 [3]): Active
C=CCc1cc(/C=C/c2cc(/C=C/c3cc(CC=C(C)C)c(O)c(OC)c3)n[nH]2)cc(OC)c1O		Active		
Oc1ccc(/C=C/c2cc(O)cc(O)c2)cc1		Active		Activity (PC-12 [5]): inactive
COc1cc(/C=C/C(O)=C/C(=O)/C=C/c2cc(CC=C(C)C)c(O)c(OC)c2)ccc1O	100	Active	inactive	
C=CCc1cc(/C=C/c2cc(/C=C/c3ccc(O)c(OC)c3)[nH]n2)cc(OC)c1O		Active		
C=CCc1cc(/C=C/C(O)=C/C(=O)/C=C/c2cc(CC=C(C)C)c(O)c(OC)c2)cc(OC)c1O	100	Active		Activity (PC-12 [3]): Active
